Like-named read-outs stand apart in the source and are kept apart here.

This note sets out measurements from paper PMC12235045, “Structural insights into allosteric inhibition of HRI kinase by heme binding via HDX-MS” (Biochemical Journal, 2025).

For assay [1], the target named is T1, Heme-regulated inhibitor (HRI) (Homo sapiens, UniProt Q9BQI3).
T1 construct: gene EIF2AK1; N-terminally His-tagged human HRI, dephosphorylated, from E. coli
As to the kind of experiment: ADP-GLO kinase assay with eIF2α substrate; supported by nanoDSF (+[…] °C at […]) and Phos-tag gels. The assay is classed as biochemical. Background: In ADP-Glo the light output rises with the ADP produced.

Assay [2] concerns the target T1, Heme-regulated inhibitor (HRI). The description is as above. The assay is classed as biochemical. This is another data set of the same source.

T1 sequence (Q9BQI3 whole entry): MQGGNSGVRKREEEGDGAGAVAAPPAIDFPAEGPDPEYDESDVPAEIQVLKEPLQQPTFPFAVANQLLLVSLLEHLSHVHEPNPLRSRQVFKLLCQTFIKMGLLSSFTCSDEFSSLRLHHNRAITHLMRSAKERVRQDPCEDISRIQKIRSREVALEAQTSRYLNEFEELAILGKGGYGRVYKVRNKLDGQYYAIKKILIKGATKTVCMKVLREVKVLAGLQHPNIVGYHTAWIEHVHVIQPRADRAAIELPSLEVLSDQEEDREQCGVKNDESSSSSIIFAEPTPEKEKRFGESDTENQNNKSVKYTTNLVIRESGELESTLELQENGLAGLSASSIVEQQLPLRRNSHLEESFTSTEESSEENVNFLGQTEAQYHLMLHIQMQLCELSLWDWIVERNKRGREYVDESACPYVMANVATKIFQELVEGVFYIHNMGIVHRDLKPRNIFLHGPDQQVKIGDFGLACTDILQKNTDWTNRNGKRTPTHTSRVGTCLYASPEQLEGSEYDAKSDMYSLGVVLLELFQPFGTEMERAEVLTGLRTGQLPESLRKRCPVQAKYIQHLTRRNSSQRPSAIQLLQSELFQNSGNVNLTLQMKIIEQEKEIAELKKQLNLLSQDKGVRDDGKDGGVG

The term IC50 denotes the concentration needed to halve the response being measured. In the case of `COC(=O)N[C@@H](C)CNc1nccc(-c2cn(C(C)C)nc2-c2cc(Cl)cc(NS(C)(=O)=O)c2F)n1` [encorafenib], half-maximal inhibition in assay [1] (IC50) was put at 1070 nM. In assay [2], `COc1ncc(Cl)cc1S(=O)(=O)Nc1ccc(F)c(C#Cc2cnc(N)nc2)c1F` [GCN2iB] yielded an IC50 of 620 nM.
